In patent publication US7625926B2, “P-glycoprotein inhibitor, method for preparing the same and pharmaceutical composition comprising the same” (Hanmi Pharm. Co., Ltd, priority 2003, dated 2009):

Tested on: MCF-7/Dox cell, which is MCF-7 expressing p-glycoprotein
Settings: enhancement of anticancer activity of paclitaxel against MCF7/Dox; ED50 of paclitaxel alone / ED50 with 50 nM test compound
Experimental: The cells were subcultured in 5% FBS (fetal bovine serum)/RPMI1640 medium supplemented with glutamine 2 mmol, sodium bicarbonate 3.7 g/L and gentamicin 10 mg/L at 37° C. in 5% CO2 incubator under 100% humidity, and collected using a 0.25% trypsin solution containing 3 mM 1,2-cyclohenxandiamine tetraacetic acid.
The collected cells were plated on a 96 well flat-bottomed plate at a density of 2×10^3 cells/well, and incubated in the same medium for 24 hours. Paclitaxel, an anticancer agent, was diluted with the same medium to obtain 10^−11˜10^−6 M test solutions. […] After incubating for 72 hours, the culture medium was removed, each well was treated with 10% trichloroacetic acid for 1 hour to fix the cells, washed with water, and dried at room temperature. After adding a dyeing solution containing 1% acetic acid with 0.4% SRB (sulforhodamine B) thereto, the wells were kept at room temperature for 30 min, and washed with 1% acetic acid to remove remaining SRB. […] Also, the enhancement of the anticancer activity of paclitaxel against MCF7/Dox (resistant cancer cells) was measured by determining ED^PAC50/ED50, wherein ED^PAC50 is the value determined for the case of paclitaxel alone.

| SMILES | ED50^PAC/ED50 |
| --- | --- |
| COc1cc2c(cc1OC)CN(CCc1ccc(-n3nnc(-c4cc(OC)c(OC)cc4NC(=O)c4ccncc4)n3)cc1)CC2 [Example 11, N-[2-(2-{4-[2-(6,7-dimethoxy-3,4-dihydro-1H-isoquinolin-2-yl)-ethyl]-phenyl}-2H-tetrazol-5-yl)-4,5-dimethoxy-phenyl]-isonicotinamide] | 3.2 |
| COc1cc2c(cc1OC)CN(CCc1ccc(-n3nnc(-c4cc(OC)c(OC)cc4NC(=O)c4cc(=O)c5ccccc5o4)n3)cc1)CC2 [Example 21, 4-oxo-4H-chromen-2-carboxylic acid [2-(2-{4-[2-(6,7-dimethoxy-3,4-dihydro-1H-isoquinolin-2-yl)-ethyl]-phenyl}-2H-tetrazol-5-yl)-4,5-dimethoxy-phenyl]-amide] | 60.1 |
| COc1cc2c(cc1OC)CN(CCc1ccc(-n3nnc(-c4cc(OC)c(OC)cc4NC(=O)c4ccoc4)n3)cc1)CC2 [Example 20, furan-3-carboxylic acid [2-(2-{4-[2-(6,7-dimethoxy-3,4-dihydro-1H-isoquinolin-2-yl)-ethyl]-phenyl}-2H-tetrazol-5-yl)-4,5-dimethoxy-phenyl]-amide] | 3.5 |
| COc1cc2c(cc1OC)CN(CCc1ccc(-n3nnc(-c4cc(OC)c(OC)cc4NC(=O)c4ccnc5ccccc45)n3)cc1)CC2 [Example 6, quinoline-4-carboxylic acid [2-(2-{4-[2-(6,7-dimethoxy-3,4-dihydro-1H-isoquinolin-2-yl)-ethyl]-phenyl}-2H-tetrazol-5-yl)-4,5-dimethoxy-phenyl]-amide] | 3.3 |
| COc1cc2c(cc1OC)CN(CCc1ccc(-n3nnc(-c4cc(OC)c(OC)cc4NC(=O)c4nccc5ccccc45)n3)cc1)CC2 [Example 5, isoquinoline-1-carboxylic acid [2-(2-{4-[2-(6,7-dimethoxy-3,4-dihydro-1H-isoquinolin-2-yl)-ethyl]-phenyl}-2H-tetrazol-5-yl)-4,5-dimethoxy-phenyl]-amide] | 1.8 |
| COc1cc2c(cc1OC)CN(CCc1ccc(-n3nnc(-c4cc(OC)c(OC)cc4NC(=O)c4cc(=O)c5cc(F)ccc5o4)n3)cc1)CC2 [Example 24, 6-fluoro-4-oxo-4H-chromene-2-carboxylic acid [2-(2-{4-[2-(6,7-dimethoxy-3,4-dihydro-1H-isoquinolin-2-yl)-ethyl]-phenyl}-2H-tetrazol-5-yl)-4,5-dimethoxy-phenyl]-amide] | 39.3 |
| COc1cc2c(cc1OC)CN(CCc1ccc(-n3nnc(-c4cc(OC)c(OC)cc4NC(=O)c4cc(=O)c5cc(C)ccc5o4)n3)cc1)CC2 [Example 22, 6-methyl-4-oxo-4H-chromene-2-carboxylic acid [2-(2-{4-[2-(6,7-dimethoxy-3,4-dihydro-1H-isoquinolin-2-yl)-ethyl]-phenyl}-2H-tetrazol-5-yl)-4,5-dimethoxy-phenyl]-amide] | 73.4 |
| COc1cc2c(cc1OC)CN(CCc1ccc(-n3nnc(-c4cc(OC)c(OC)cc4NC(=O)c4cccnc4)n3)cc1)CC2 [Example 10, N-[2-(2-{4-[2-(6,7-dimethoxy-3,4-dihydro-1H-isoquinolin-2-yl)-ethyl]-phenyl}-2H-tetrazol-5-yl)-4,5-dimethoxy-phenyl]-nicotinamide] | 3.0 |
| COc1cc2c(cc1OC)CN(CCc1ccc(-n3nnc(-c4cc(OC)c(OC)cc4NC(=O)c4ccsc4)n3)cc1)CC2 [Example 19, thiophene-3-carboxylic acid [2-(2-{4-[2-(6,7-dimethoxy-3,4-dihydro-1H-isoquinolin-2-yl)-ethyl]-phenyl}-2H-tetrazol-5-yl)-4,5-dimethoxy-phenyl]-amide] | 4.5 |
| COc1cc2c(cc1OC)CN(CCc1ccc(-n3nnc(-c4cc(OC)c(OC)cc4NC(=O)c4ccccc4)n3)cc1)CC2 [Example 13, N-[2-(2-{4-[2-(6,7-dimethoxy-3,4-dihydro-1H-isoquinolin-2-yl)-ethyl]-phenyl}-2H-tetrazol-5-yl)-4,5-dimethoxy-phenyl]-benzamide] | 3.4 |
| COc1cc2c(cc1OC)CN(CCc1ccc(-n3nnc(-c4cc(OC)c(OC)cc4NC(=O)c4ccccn4)n3)cc1)CC2 [Example 9, pyridine-2-carboxylic acid [2-(2-{4-[2-(6,7-dimethoxy-3,4-dihydro-1H-isoquinolin-2-yl)-ethyl]-phenyl}-2H-tetrazol-5-yl)-4,5-dimethoxy-phenyl]-amide] | 3.1 |
| COc1cc2c(cc1OC)CN(CCc1ccc(-n3nnc(-c4cc(OC)c(OC)cc4NC(=O)c4ccccc4F)n3)cc1)CC2 [Example 15] | 4.1 |
| COc1cc2c(cc1OC)CN(CCc1ccc(-n3nnc(-c4cc(F)c(F)cc4NC(=O)c4cnc5ccccc5c4)n3)cc1)CC2 [Example 28, quinoline-3-carboxylic acid [2-(2-{4-[2-(6,7-dimethoxy-3,4-dihydro-1H-isoquinolin-2-yl)-ethyl]-phenyl}-2H-tetrazol-5-yl)-4,5-difluoro-phenyl]-amide] | 19.9 |
| COc1cc2c(cc1OC)CN(CCc1ccc(-n3nnc(-c4cc(OC)c(OC)cc4NC(=O)c4cnc5ccccc5c4)n3)cc1)CC2 [Example 30] | 2.6 |
| COc1cc2c(cc1OC)CN(CCc1ccc(-n3nnc(-c4cc(OC)c(OC)cc4NC(=O)c4ccc5ccccc5c4)n3)cc1)CC2 [Example 14, naphthalene-2-carboxylic acid [2-(2-{4-[2-(6,7-dimethoxy-3,4-dihydro-1H-isoquinolin-2-yl)-ethyl]-phenyl}-2H-tetrazol-5-yl)-4,5-dimethoxy-phenyl]-amide] | 2.6 |
| COc1cc2c(cc1OC)CN(CCc1ccc(-n3nnc(-c4cc(OC)c(OC)cc4NC(=O)c4cc(=O)c5c(OC)cccc5o4)n3)cc1)CC2 [Example 23, 5-methoxy-4-oxo-4H-chromene-2-carboxylic acid [2-(2-{4-[2-(6,7-dimethoxy-3,4-dihydro-1H-isoquinolin-2-yl)-ethyl]-phenyl}-2H-tetrazol-5-yl)-4,5-dimethoxy-phenyl]-amide] | 49.9 |
| COc1cc2c(cc1OC)CN(CCc1ccc(-n3nnc(-c4cc(OC)c(OC)cc4NC(=O)c4ccc5ccccc5n4)n3)cc1)CC2 [Example 2, quinoline-2-carboxylic acid [2-(2-{4-[2-(6,7-dimethoxy-3,4-dihydro-1H-isoquinolin-2-yl)-ethyl]-phenyl}-2H-tetrazol-5-yl)-4,5-dimethoxy-phenyl]-amide] | 2.7 |
| COc1cc2c(cc1OC)CN(CCc1ccc(-n3nnc(-c4cc(OC)c(OC)cc4NC(=O)c4cc(=O)c5cc(Br)ccc5o4)n3)cc1)CC2 [Example 25, 6-bromo-4-oxo-4H-chromene-2-carboxylic acid [2-(2-{4-[2-(6,7-dimethoxy-3,4-dihydro-1H-isoquinolin-2-yl)-ethyl]-phenyl}-2H-tetrazol-5-yl)-4,5-dimethoxy-phenyl]-amide] | 28.6 |
| COc1cc2c(cc1OC)CN(CCc1ccc(-n3nnc(-c4cc(OC)c(OC)cc4NC(=O)c4coc5ccccc5c4=O)n3)cc1)CC2 [Example 27, 4-oxo-4H-chromene-3-carboxylic acid [2-(2-{4-[2-(6,7-dimethoxy-3,4-dihydro-1H-isoquinolin-2-yl)-ethyl]-phenyl}-2H-tetrazol-5-yl)-4,5-dimethoxy-phenyl]-amide] | 2.1 |
